{"source": "ChEMBL document CHEMBL3044811", "about": "“Efficacy of grain protectants against four psocid species on maize, rice and wheat” (2009)", "key": {"Liposcelis entomophila [1]": {"tested_on": "Liposcelis entomophila", "assay": "Insecticidal activity against Liposcelis entomophila in compound pre-treated maize grains assessed as mortality at 1 ppm after 7 days (reference value: 15.6 +/-6.9%)", "assay_type": "functional"}, "Lepinotus reticulatus [2]": {"tested_on": "Lepinotus reticulatus", "assay": "Insecticidal activity against Lepinotus reticulatus in compound pre-treated maize grains assessed as decrease in progeny production at 1 ppm after 30 days", "assay_type": "functional, organism-based"}, "[3]": {"tested_on": "Liposcelis bostrychophila", "assay": "Insecticidal activity against Liposcelis bostrychophila (booklice) in compound pre-treated maize grains assessed as decrease in progeny production at 1 ppm after 30 days", "assay_type": "functional, organism-based"}, "[4]": {"tested_on": "Liposcelis bostrychophila", "assay": "Insecticidal activity against Liposcelis bostrychophila (booklice) in compound pre-treated wheat grains assessed as mortality at 1 ppm after 7 days (reference value: 3.3 +/-1.7%)", "assay_type": "functional"}, "Liposcelis paeta [5]": {"tested_on": "Liposcelis paeta", "assay": "Insecticidal activity against Liposcelis paeta in compound pre-treated rice grains assessed as mortality at 1 ppm after 14 days (reference value: 3.4 +/-1.6%)", "assay_type": "functional"}, "Lepinotus reticulatus [6]": {"tested_on": "Lepinotus reticulatus", "assay": "Insecticidal activity against Lepinotus reticulatus in compound pre-treated wheat grains assessed as mortality at 1 ppm after 14 days (reference value: 21.1 +/-7.4%)", "assay_type": "functional"}, "[7]": {"tested_on": "Liposcelis bostrychophila", "assay": "Insecticidal activity against Liposcelis bostrychophila (booklice) in compound pre-treated rice grains assessed as mortality at 1 ppm after 14 days (reference value: 9.7 +/-2.4%)", "assay_type": "functional"}, "Lepinotus reticulatus [8]": {"tested_on": "Lepinotus reticulatus", "assay": "Insecticidal activity against Lepinotus reticulatus in compound pre-treated wheat grains assessed as mortality at 1 ppm after 7 days (reference value: 10.0 +/-5.3%)", "assay_type": "functional"}, "Liposcelis entomophila [9]": {"tested_on": "Liposcelis entomophila", "assay": "Insecticidal activity against Liposcelis entomophila in compound pre-treated wheat grains assessed as mortality at 1 ppm after 7 days (reference value: 5.6 +/-2.9%)", "assay_type": "functional"}, "Liposcelis entomophila [10]": {"tested_on": "Liposcelis entomophila", "assay": "Insecticidal activity against Liposcelis entomophila in compound pre-treated wheat grains assessed as decrease in progeny production at 1 ppm after 30 days", "assay_type": "functional, organism-based"}, "Liposcelis entomophila [11]": {"tested_on": "Liposcelis entomophila", "assay": "Insecticidal activity against Liposcelis entomophila in compound pre-treated rice grains assessed as mortality at 1 ppm after 7 days (reference value: 3.3 +/-2.6%)", "assay_type": "functional"}, "Liposcelis paeta [12]": {"tested_on": "Liposcelis paeta", "assay": "Insecticidal activity against Liposcelis paeta in compound pre-treated maize grains assessed as mortality at 1 ppm after 7 days (reference value: 13.3 +/-3.3%)", "assay_type": "functional"}, "[13]": {"tested_on": "Liposcelis bostrychophila", "assay": "Insecticidal activity against Liposcelis bostrychophila (booklice) in compound pre-treated rice grains assessed as effect on progeny production at 1 ppm after 30 days", "assay_type": "functional, organism-based"}, "Lepinotus reticulatus [14]": {"tested_on": "Lepinotus reticulatus", "assay": "Insecticidal activity against Lepinotus reticulatus in compound pre-treated rice grains assessed as mortality at 1 ppm after 7 days (reference value: 6.8 +/-2.4%)", "assay_type": "functional"}, "Liposcelis paeta [15]": {"tested_on": "Liposcelis paeta", "assay": "Insecticidal activity against Liposcelis paeta in compound pre-treated maize grains assessed as effect on progeny production at 1 ppm after 30 days", "assay_type": "functional, organism-based"}, "Liposcelis paeta [16]": {"tested_on": "Liposcelis paeta", "assay": "Insecticidal activity against Liposcelis paeta in compound pre-treated rice grains assessed as mortality at 1 ppm after 7 days (reference value: 3.3 +/-1.7%)", "assay_type": "functional"}, "Liposcelis paeta [17]": {"tested_on": "Liposcelis paeta", "assay": "Insecticidal activity against Liposcelis paeta in compound pre-treated wheat grains assessed as mortality at 1 ppm after 7 days (reference value: 7.8 +/-3.2%)", "assay_type": "functional"}, "[18]": {"tested_on": "Liposcelis bostrychophila", "assay": "Insecticidal activity against Liposcelis bostrychophila (booklice) in compound pre-treated maize grains assessed as mortality at 1 ppm after 7 days (reference value: 8.9 +/-2.6%)", "assay_type": "functional"}, "Lepinotus reticulatus [19]": {"tested_on": "Lepinotus reticulatus", "assay": "Insecticidal activity against Lepinotus reticulatus in compound pre-treated maize grains assessed as mortality at 1 ppm after 14 days (reference value: 61.1 +/-11.9%)", "assay_type": "functional"}, "Lepinotus reticulatus [20]": {"tested_on": "Lepinotus reticulatus", "assay": "Insecticidal activity against Lepinotus reticulatus in compound pre-treated rice grains assessed as mortality at 1 ppm after 14 days (reference value: 15.5 +/-4.1%)", "assay_type": "functional"}, "Liposcelis entomophila [21]": {"tested_on": "Liposcelis entomophila", "assay": "Insecticidal activity against Liposcelis entomophila in compound pre-treated maize grains assessed as decrease in progeny production at 1 ppm after 30 days", "assay_type": "functional, organism-based"}, "Liposcelis paeta [22]": {"tested_on": "Liposcelis paeta", "assay": "Insecticidal activity against Liposcelis paeta in compound pre-treated wheat grains assessed as mortality at 1 ppm after 14 days (reference value: 5.6 +/-1.8%)", "assay_type": "functional"}, "Liposcelis entomophila [23]": {"tested_on": "Liposcelis entomophila", "assay": "Insecticidal activity against Liposcelis entomophila in compound pre-treated wheat grains assessed as mortality at 1 ppm after 14 days (reference value: 13.3 +/-4.7%)", "assay_type": "functional"}, "[24]": {"tested_on": "Liposcelis bostrychophila", "assay": "Insecticidal activity against Liposcelis bostrychophila (booklice) in compound pre-treated rice grains assessed as mortality at 1 ppm after 7 days (reference value: 8.9 +/-4.5%)", "assay_type": "functional"}, "Liposcelis paeta [25]": {"tested_on": "Liposcelis paeta", "assay": "Insecticidal activity against Liposcelis paeta in compound pre-treated maize grains assessed as mortality at 1 ppm after 14 days (reference value: 14.1 +/-4.1%)", "assay_type": "functional"}, "[26]": {"tested_on": "Liposcelis bostrychophila", "assay": "Insecticidal activity against Liposcelis bostrychophila (booklice) in compound pre-treated maize grains assessed as mortality at 1 ppm after 14 days (reference value: 13.5 +/-5.3%)", "assay_type": "functional"}, "Liposcelis entomophila [27]": {"tested_on": "Liposcelis entomophila", "assay": "Insecticidal activity against Liposcelis entomophila in compound pre-treated maize grains assessed as mortality at 1 ppm after 14 days (reference value: 14.4 +/-4.1%)", "assay_type": "functional"}, "Lepinotus reticulatus [28]": {"tested_on": "Lepinotus reticulatus", "assay": "Insecticidal activity against Lepinotus reticulatus in compound pre-treated rice grains assessed as decrease in progeny production at 1 ppm after 30 days", "assay_type": "functional, organism-based"}, "Liposcelis entomophila [29]": {"tested_on": "Liposcelis entomophila", "assay": "Insecticidal activity against Liposcelis entomophila in compound pre-treated rice grains assessed as mortality at 1 ppm after 14 days (reference value: 10.0 +/-4.7%)", "assay_type": "functional"}, "Lepinotus reticulatus [30]": {"tested_on": "Lepinotus reticulatus", "assay": "Insecticidal activity against Lepinotus reticulatus in compound pre-treated maize grains assessed as mortality at 1 ppm after 7 days (reference value: 34.4 +/-11.4%)", "assay_type": "functional"}, "Lepinotus reticulatus [31]": {"tested_on": "Lepinotus reticulatus", "assay": "Insecticidal activity against Lepinotus reticulatus in compound pre-treated wheat grains assessed as decrease in progeny production at 1 ppm after 30 days", "assay_type": "functional, organism-based"}, "[32]": {"tested_on": "Liposcelis bostrychophila", "assay": "Insecticidal activity against Liposcelis bostrychophila (booklice) in compound pre-treated wheat grains assessed as effect on progeny production at 1 ppm after 30 days", "assay_type": "functional, organism-based"}, "[33]": {"tested_on": "Liposcelis bostrychophila", "assay": "Insecticidal activity against Liposcelis bostrychophila (booklice) in compound pre-treated wheat grains assessed as mortality at 1 ppm after 14 days (reference value: 6.8 +/-3.3%)", "assay_type": "functional"}}, "note": "Active and inactive are the calls of the source. No cut-off for these calls is given here.", "data": [{"smiles": "CC[C@H]1CCC[C@H](O[C@H]2CC[C@H](N(C)C)[C@@H](C)O2)[C@@H](C)C(=O)C2=C[C@@H]3[C@@H](C=C(C)[C@@H]4C[C@@H](O[C@@H]5O[C@@H](C)[C@H](OC)[C@@H](OC)[C@H]5OC)C[C@@H]34)[C@@H]2CC(=O)O1.CC[C@H]1CCC[C@H](O[C@H]2CC[C@H](N(C)C)[C@@H](C)O2)[C@@H](C)C(=O)C2=C[C@@H]3[C@@H](C=C[C@@H]4C[C@@H](O[C@@H]5O[C@@H](C)[C@H](OC)[C@@H](OC)[C@H]5OC)C[C@@H]34)[C@@H]2CC(=O)O1", "values": [{"measurement": "mortality at 1 ppm", "setting": "Liposcelis entomophila [1]", "value": 90, "unit": "%"}, {"measurement": "inhibition", "setting": "Lepinotus reticulatus [2]", "value": "Active"}, {"measurement": "inhibition", "setting": "[3]", "value": "Active"}, {"measurement": "mortality at 1 ppm", "setting": "[4]", "value": 74.5, "unit": "%"}, {"measurement": "mortality at 1 ppm", "setting": "Liposcelis paeta [5]", "value": 18.8, "unit": "%"}, {"measurement": "mortality at 1 ppm", "setting": "Lepinotus reticulatus [6]", "value": 96.7, "unit": "%"}, {"measurement": "mortality at 1 ppm", "setting": "[7]", "value": 45.7, "unit": "%"}, {"measurement": "mortality at 1 ppm", "setting": "Lepinotus reticulatus [8]", "value": 94.4, "unit": "%"}, {"measurement": "mortality at 1 ppm", "setting": "Liposcelis entomophila [9]", "value": 61.2, "unit": "%"}, {"measurement": "inhibition", "setting": "Liposcelis entomophila [10]", "value": "Active"}, {"measurement": "mortality at 1 ppm", "setting": "Liposcelis entomophila [11]", "value": 52.2, "unit": "%"}, {"measurement": "mortality at 1 ppm", "setting": "Liposcelis paeta [12]", "value": 16.7, "unit": "%"}, {"measurement": "inhibition", "setting": "[13]", "value": "inactive"}, {"measurement": "mortality at 1 ppm", "setting": "Lepinotus reticulatus [14]", "value": 80, "unit": "%"}, {"measurement": "inhibition", "setting": "Liposcelis paeta [15]", "value": "inactive"}, {"measurement": "mortality at 1 ppm", "setting": "Liposcelis paeta [16]", "value": 10, "unit": "%"}, {"measurement": "mortality at 1 ppm", "setting": "Liposcelis paeta [17]", "value": 46.7, "unit": "%"}, {"measurement": "mortality at 1 ppm", "setting": "[18]", "value": 71.1, "unit": "%"}, {"measurement": "mortality at 1 ppm", "setting": "Lepinotus reticulatus [19]", "value": 100, "unit": "%"}, {"measurement": "mortality at 1 ppm", "setting": "Lepinotus reticulatus [20]", "value": 71.1, "unit": "%"}, {"measurement": "inhibition", "setting": "Liposcelis entomophila [21]", "value": "Active"}, {"measurement": "mortality at 1 ppm", "setting": "Liposcelis paeta [22]", "value": 55.6, "unit": "%"}, {"measurement": "mortality at 1 ppm", "setting": "Liposcelis entomophila [23]", "value": 84.4, "unit": "%"}, {"measurement": "mortality at 1 ppm", "setting": "[24]", "value": 48.9, "unit": "%"}, {"measurement": "mortality at 1 ppm", "setting": "Liposcelis paeta [25]", "value": 37.8, "unit": "%"}, {"measurement": "mortality at 1 ppm", "setting": "[26]", "value": 76.4, "unit": "%"}, {"measurement": "mortality at 1 ppm", "setting": "Liposcelis entomophila [27]", "value": 98.9, "unit": "%"}, {"measurement": "inhibition", "setting": "Lepinotus reticulatus [28]", "value": "Active"}, {"measurement": "mortality at 1 ppm", "setting": "Liposcelis entomophila [29]", "value": 52.3, "unit": "%"}, {"measurement": "mortality at 1 ppm", "setting": "Lepinotus reticulatus [30]", "value": 94.5, "unit": "%"}, {"measurement": "inhibition", "setting": "Lepinotus reticulatus [31]", "value": "Active"}, {"measurement": "inhibition", "setting": "[32]", "value": "inactive"}, {"measurement": "mortality at 1 ppm", "setting": "[33]", "value": 75.6, "unit": "%"}]}]}
